Laboratory results taken from patent publication US20160220574A1, “NSAID AND SIGMA RECEPTOR LIGAND COMBINATIONS” (LABORATORIOS DEL DR. ESTEVE, S.A., priority 2013, published 2016).
Read-outs that look alike come from different tables or passages of the source.

Assays:
[1] = tested on: mechanical allodynia of the post-operative pain model in rats; experiment: Mechanical allodynia (von Frey filaments) in the post-operative pain model (plantar incision) in rats; assay type: in vivo; details: for doses producing significant effect, Sigma antagonist alone: BD1063 alone 20, 40 and 80 mg/kg, compound 63.HCl alone 10, 20, 40 and 80 mg/kg
Method: The induction of anesthesia in rats was performed with 3% isofluran for veterinary use, employing an Ohmeda vaporizer and an anesthesia chamber. Anesthesia was kept during the surgical operation by a tube which directs the isofluran vapors to the animal's snout. Once the rats were anesthetized, they were laid down in a prone position and their right hind paws were cleaned out with alcohol. Then, a skin incision in the hindpaw of about 10 mm was made by means of a scalpel, starting about 5 mm from the heel and extending toward the toes. Fascia was located and by means of curve scissors muscle was elevated and a longitudinal incision of about 5 mm was made, thus the muscle origin and insertion remained intact. The skin of the paw was stitched with a suturing stitch with breaded silk (3.0) and the wound was cleaned out with povidone. The assessment was performed 30 minutes after the administration of product and always 4 hours after the plantar incision. The analysis was carried out evaluating the mechanical allodynia. It was tested using von Frey filaments: Animals were placed in methacrylate cylinders on an elevated surface, with metallic mesh floor perforated in order to apply the filaments. […] The animal's response to pain was manifested by the withdrawal of the paw as a consequence of the painful stimulus caused by a filament.

σ1 receptors = details: rodent brain membranes and human neuroblastoma cells, cited from earlier work
D2 receptors = details: rodent brain membranes and human neuroblastoma cells; compared with haloperidol; cited from earlier work
sigma-1 receptors = details: both in experimental animals and human cells; cited from earlier work

CC(C)Cc1ccc(C(C)C(=O)O)cc1 (centres unmarked) [Ibuprofen]
Mean of the porcentage of analgesia in the post-operative pain model, Compounds alone ([1]; dose 0.625 mg/kg): 16% | effect of NSAID alone ([1]; rats, NSAID alone 0.625 mg/kg): no significant effect

CC(=O)Nc1ccc(O)cc1 [Paracetamol]
Mean of the porcentage of analgesia in the post-operative pain model, Compounds alone ([1]; dose 20 mg/kg): 13% | effect of NSAID alone ([1]; rats, NSAID alone 20 mg/kg): no significant effect

Cc1cc(OCCN2CCOCC2)nn1-c1ccc2ccccc2c1.Cl [compound 63.HCl, 4-{2-[5-Methyl-1-(naphthalen-2-yl)-1H-pyrazol-3-yloxy]ethyl}morpholine hydrochloride]
doses producing significant effect, Sigma antagonist alone ([1]; rats): significant effect only at 40 and 80 mg/kg | maximum effect / maximum efficacy, Sigma antagonist alone ([1]; rats, compound alone (10, 20, 40 and 80 mg/kg), without sub-active dose of NSAID, 3.5 hours after surgery): 43%

O=C(O)Cc1ccccc1Nc1c(Cl)cccc1Cl [Diclofenac]
Mean of the porcentage of analgesia in the post-operative pain model, Compounds alone ([1]; dose 0.625 mg/kg): 13% | effect of NSAID alone ([1]; rats, NSAID alone 0.312 mg/kg): no significant effect

CN1CCN(CCc2ccc(Cl)c(Cl)c2)CC1 [BD1063, 1-[2-(3,4-dichlorophenyl)ethyl]-4-methylpiperazine]
ED50 ([1]; Rattus norvegicus, rats, compound alone, administered 3.5 hours after surgery, assessed 30 minutes after administration, 4 hours after plantar incision, read-out: ED50 (dose-dependent effect), Sigma antagonist alone): 56.2 mg/kg | doses producing significant effect, Sigma antagonist alone ([1]; rats): significant effect only at 40 and 80 mg/kg

OC(CCCN1CCC(O)(c2ccc(Cl)cc2)CC1)c1ccc(F)cc1 (centres unmarked) [metabolite II, 4-(4-chlorophenyl)-[…]-(4-fluorophenyl)-4-hydroxy-1-piperidinebutanol]
affinity for σ1 (sigma-1) receptors (σ1 receptors): less affinity than haloperidol | affinity for σ1 (sigma-1) receptors (σ1 receptors; listed as Reduced haloperidol): high affinity (in the low nanomolar range) | affinity for D2 receptors (D2 receptors): much lower | blockade of sigma-1 receptors (sigma-1 receptors): irreversible blockade

Cc1c(N(C)CS(=O)(=O)O)c(=O)n(-c2ccccc2)n1C [Metamizole]
Mean of the porcentage of analgesia in the post-operative pain model, Compounds alone ([1]; dose 0.156 mg/kg): 14% | effect of NSAID alone ([1]; rats, NSAID alone 0.156 mg/kg): no significant effect

COc1ccc2cc([C@H](C)C(=O)O)ccc2c1 [Naproxen]
Mean of the porcentage of analgesia in the post-operative pain model, Compounds alone ([1]; dose 0.312 mg/kg): 13% | effect of NSAID alone ([1]; rats, NSAID alone 0.312 mg/kg): no significant effect

Cc1ccc(-c2cc(C(F)(F)F)nn2-c2ccc(S(N)(=O)=O)cc2)cc1 [Celecoxib]
Mean of the porcentage of analgesia in the post-operative pain model, Compounds alone ([1]; dose 0.625 mg/kg): 13% | effect of NSAID alone ([1]; rats, NSAID alone 0.625 mg/kg): no significant effect

OC1(c2ccc(Cl)cc2)CCNCC1 [metabolite I, 4-(4-chlorophenyl)-4-hydroxypiperidine]
affinity for σ1 (sigma-1) receptors (σ1 receptors): less affinity than haloperidol | affinity for D2 receptors (D2 receptors): no affinity

Cc1cc(OCCN2CCOCC2)nn1-c1ccc2ccccc2c1 [compound 63, 4-{2-[5-Methyl-1-(naphthalen-2-yl)-1H-pyrazol-3-yloxy]ethyl}morpholine]
Mean of the porcentage of analgesia in the post-operative pain model, Compounds alone ([1]; dose 10 mg/kg): 2% | Mean of the porcentage of analgesia in the post-operative pain model, Compounds alone ([1]; dose 20 mg/kg): 15% | Mean of the porcentage of analgesia in the post-operative pain model, Compounds alone ([1]; dose 40 mg/kg): 43% | Mean of the porcentage of analgesia in the post-operative pain model, Compounds alone ([1]; dose 80 mg/kg): 41%
